Data set [1] is described as follows: Solution stability of 2-cyano-pyrrolidines. The format is physicochemical. How it is done:
In experiments at pH=7.2 and 39° C., the greater degree of β-branching the greater degree of stability associated with the compound. […] These are depected in the table below.

Data set [2] concerns Zucker^fa/fa rat. The data set is described as follows: Oral glucose tolerance test (OGTT) in Zucker fa/fa rats. The format is in vivo. Particulars: for glucose control after oral glucose challenge (in words): rodent model of impaired glucose homeostasis. The text has this:
In vivo evaluation of DPP-IV inhibitors has supported the connection between DPP-IV inhibition, increases in plasma insulin levels, and an improvement in glucose tolerance.^1 Several compounds in the present series are potent inhibitors of DPP-IV in vitro. As such, these inhibitors were selected to determine the effects of DPP-IV inhibition ex vivo and on glucose tolerance in Zucker^fa/fa rat. The Zucker^fa/fa rat is a frequently used model in type II diabetes and obesity research. […] Plasma glucose levels were then monitored over a 2 h period. Columns 3 and 4 show the ex vivo plasma DPP-IV inhibition activity. […] In contrast, the adamantyl inhibitors show good inhibitory activity in the ex vivo assay, even at extended time points.
Male Zucker^fa/fa rats (Harlan) weighing between 400 and 450 g were housed in a room that was maintained on a 12 h light /dark cycle and were allowed free access to normal rodent chow and tap water. The day before the experiment, the rats were weighed and divided into control and treated groups of six. Rats were fasted 17 h prior to the start of the study. […] Two blood samples were collected at −30 and 0 min by tail bleed. Glucose (2 g/kg) was administered orally at 0 min. Additional blood samples were collected at 15, 30, 60, 90 and 120 min. Blood samples were collected into EDTA containing tubes from Starstedt. Plasma glucose was determined by Cobas Mira (Roche Diagnostics) by the glucose oxidation method.

Data set [3] concerns the target T1, Porcine Dipeptidyl Peptidase IV (Sus scrofa, UniProt P22411).
T1 construct: left at 37° C. for 18 hours to facilitate cleavage of DPP-4 from cell membranes; from tissue; host or cells: pig kidney cortex
In words: Assay of Porcine Dipeptidyl Peptidase IV, steady-state inhibition constants (Ki). The format is biochemical. Particulars: DPP-IV.
Protocol: DPP-4 inhibitor activity of the compounds of the invention may be determined by use of an in vitro assay system which measures the potentiation of inhibition of DPP-4.
Porcine enzyme was purified as previously described in reference (2) below, with several modifications. Kidneys from 15-20 animals were obtained, and the cortex was dissected away and frozen at −80° C. Frozen tissue (2000-2500 g) was homogenized in 12 L of 0.25 M sucrose in a Waring blender. The homogenate then was left at 37° C. for 18 hours to facilitate cleavage of DPP-4 from cell membranes. After the cleavage step, the homogenate was clarified by centrifugation at 7000×g for 20 min at 4° C., and the supernatant was collected. […]
After dialysis against 20 mM Na2HPO4, pH 7.4, the preparation was clarified by centrifugation at 10,000×g. […] Purity of column fractions was analyzed by reducing SDS-PAGE, and the purest fractions were pooled and concentrated. […]
Enzyme was assayed under steady-state conditions as previously described in reference (2) below with gly-pro-p-nitroanilide as substrate, with the following modifications. […] A standard curve for p-nitroaniline absorbance was obtained at the beginning of each experiment, and enzyme catalyzed p-nitroaniline production was quantitated from the standard curve. […]

Data set [4] has as its target T2, plasma DPP-IV (Rattus norvegicus, UniProt P14740).
T2 construct: from tissue; host or cells: plasma of male Zucker fa/fa rats (Harlan)
The data set is described as follows: Rat ex vivo plasma DPP-IV inhibition assay. In kind it is in vivo, Zucker fa/fa rat. Particulars: oral; for inhibition at 3 µmol/kg: rat, 3 μmol/kg.

Where two headings read alike, the source gives them in different places.

T2 sequence (P14740 37-767 limits assumed): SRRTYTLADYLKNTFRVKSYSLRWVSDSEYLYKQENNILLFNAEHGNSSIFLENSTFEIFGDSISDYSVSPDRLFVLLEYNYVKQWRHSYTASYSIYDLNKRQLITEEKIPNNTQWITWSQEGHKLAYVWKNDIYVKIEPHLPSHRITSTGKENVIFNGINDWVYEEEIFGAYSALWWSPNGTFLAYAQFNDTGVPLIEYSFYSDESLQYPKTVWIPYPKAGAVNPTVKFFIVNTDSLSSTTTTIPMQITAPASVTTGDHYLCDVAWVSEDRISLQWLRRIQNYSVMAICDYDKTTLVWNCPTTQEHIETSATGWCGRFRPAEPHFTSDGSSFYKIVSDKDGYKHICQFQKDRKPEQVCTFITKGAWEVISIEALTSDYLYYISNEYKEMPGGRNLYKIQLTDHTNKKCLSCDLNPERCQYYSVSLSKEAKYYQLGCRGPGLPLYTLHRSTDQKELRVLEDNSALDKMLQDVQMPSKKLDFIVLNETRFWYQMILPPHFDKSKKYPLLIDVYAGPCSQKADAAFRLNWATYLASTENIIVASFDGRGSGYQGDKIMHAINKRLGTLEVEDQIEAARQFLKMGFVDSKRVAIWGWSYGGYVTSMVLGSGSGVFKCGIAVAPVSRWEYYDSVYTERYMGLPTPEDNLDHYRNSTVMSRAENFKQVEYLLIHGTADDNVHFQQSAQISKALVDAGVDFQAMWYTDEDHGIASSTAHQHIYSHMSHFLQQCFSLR
T1 sequence (P22411 38-766 limits assumed): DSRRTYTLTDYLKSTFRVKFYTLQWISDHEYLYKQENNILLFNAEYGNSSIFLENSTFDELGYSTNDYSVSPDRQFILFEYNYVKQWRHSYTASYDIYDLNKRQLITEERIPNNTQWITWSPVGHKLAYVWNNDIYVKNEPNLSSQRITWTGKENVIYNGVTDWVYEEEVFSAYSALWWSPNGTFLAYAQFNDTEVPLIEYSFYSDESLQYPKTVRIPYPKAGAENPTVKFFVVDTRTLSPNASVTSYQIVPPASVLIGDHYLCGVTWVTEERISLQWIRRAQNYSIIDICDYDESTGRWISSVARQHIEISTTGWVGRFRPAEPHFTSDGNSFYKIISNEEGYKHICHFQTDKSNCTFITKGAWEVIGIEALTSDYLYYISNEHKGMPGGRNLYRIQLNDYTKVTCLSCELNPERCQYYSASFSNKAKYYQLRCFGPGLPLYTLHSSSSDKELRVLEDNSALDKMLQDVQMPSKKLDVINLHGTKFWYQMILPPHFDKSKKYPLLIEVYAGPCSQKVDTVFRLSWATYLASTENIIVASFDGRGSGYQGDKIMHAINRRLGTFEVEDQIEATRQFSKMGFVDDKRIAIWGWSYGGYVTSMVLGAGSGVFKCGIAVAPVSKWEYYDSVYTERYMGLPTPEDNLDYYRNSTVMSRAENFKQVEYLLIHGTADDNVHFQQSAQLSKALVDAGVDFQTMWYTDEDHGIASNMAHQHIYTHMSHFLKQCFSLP

Regarding tert-Leucine-cyanopyrrolide, the “times more stable than Ref. Std. 1” value in data set [1] (pH=7.2, 39° C., ratio of t1/2) is on record as roughly 6.

With `N#C[C@@H]1CCCC1C(=O)C(N)C12CC3CC(CC(O)(C3)C1)C2` (stereo partly shown) [Example 9], in data set [2], the “glucose control after oral glucose challenge (in words)” value is given as “good glucose control”.

With `CC[C@H](C)[C@H](N)C(=O)N1CCC[C@H]1C#N` [Ref. Std 1, iso-Leucine-cyanopyrrolide], the “Glucose Lowering at 4 h; % AUC's, compared to control” value in data set [2] (dosed at 16 μm/kg) is listed as −11%; in data set [2] (dosed at 200 μm/kg) it was −19%. Besides, the “glucose control after oral glucose challenge (in words)” value in data set [2] was “only a slight change in glucose control”. The half-life – broadly, the time needed for the level to fall by half in the phase considered – in data set [1] (pH 7.2) is 5 h.

In the case of `CC12CC3(C)CC(O)(C1)CC([C@H](N)C(=O)N1CCCC1)(C2)C3` [Example 5, (3-hydroxy-5,7-dimethyladamant-1-yl)-glycine pyrrolidine amide], affinity in data set [3] was put at a Ki of 133 nM. Also, the inhibition at 3 µmol/kg amounted to 70% in data set [4] (0.5 h post dose, read-out: % Inhibition in Rat Ex Vivo assay 3 μmol/kg 0.5 h post dose) and 66% in data set [4] (4 h post dose, read-out: % Inhibition in Rat Ex Vivo assay 3 μmol/kg 4 h post dose). Also, the “Glucose Lowering at 4 h; % AUC's, compared to control” value in data set [2] (oral, 3 μmol/kg, oral glucose 2 g/kg) is given as −39%.

`N#CC1CC2CC2N1C(=O)[C@@H](N)C12CC3CC(O)(CC(O)(C3)C1)C2.O=C(O)C(F)(F)F` (stereo in doubt) [Example 8, (S)-3,5-Dihydroxyadamantylglycine-L-cis-4,5-methanoprolinenitrile TFA salt]: in data set [3], the Ki (usually a dissociation constant, usually derived from enzyme kinetics or from competition with a known ligand) was determined as 17 nM. Also, the “% Inhibition in Rat Ex Vivo assay 3 μmol/kg 0.5 h post dose” value in data set [4] (0.5 h post dose) came out at 80%. Moreover, in data set [4] (4 h post dose), the “% Inhibition in Rat Ex Vivo assay 3 μmol/kg 4 h post dose” value was determined as 67%.

For the origin of these results see patent publication US6995183B2, “Adamantylglycine-based inhibitors of dipeptidyl peptidase IV and methods” (Bristol Myers Squibb Company, priority 2003, dated 2006).
